Data from patent publication US5190929A, “Cyclophosphamide analogs useful as anti-tumor agents” (Research Corporation Technologies, Inc., priority 1988, dated 1993).

Assays:
L1210 tumor cells = assay: In vivo antitumor activity, survival of L1210 bearing mice; set-up: species or system mouse (male B6 D2 F1); conditions: for Long Term Survivors: experiment terminated on day 30; for response vs control in vivo at 34 µmol/kg / response vs control in vivo at 51 µmol/kg / response vs control in vivo at 68 µmol/kg / response vs control in vivo at 17 µmol/kg: Mus musculus, L1210, ip, read-out: Survival of L1210 bearing mice - % T/C × 100; for response vs control in vivo at 17 µmol/kg: 17 umol/kg; for toxicity compared with the reference activated cyclophosphamide: higher doses
Description: (§1) Typically 4 groups of 10 male B6 D2 F1 mice (Jackson Breeding Lab., Bar Harbor Me) were injected i.p. with 1×10^5 L1210 tumor cells. Twenty four hours after injection three groups were treated (i.p. injection) with varying doses of drug, and the fourth group received the vehicle alone. The mice were observed daily and death dates were recorded. The experiment was terminated on day 30 and median survival time (days) and % T/C (ratio of median survival time of treated group divided by the […] survival time of the control group) was calculated. The drug was delivered using either an isotonic saline solution or a carboxymethyl cellulose suspension depending on the solubility of the drug.

[1] = tested on: L1210 murine leukemia cells, cyclophosphamide-resistant (/CP); assay: In vitro soft agar colony-forming cytotoxicity assay, cyclophosphamide-resistant L1210 cells; format: cell-based, mouse; set-up: LC99: unit not given here; conditions: for LC99: L1210 /CP (cyclophosphamide-resistant), 1-hour exposure, 99% cell kill; for RF, resistance factor = ratio of LC99 in resistant/sensitive cells: L1210, 60 min
Text: (§2) A soft agar colony-forming assay according to the procedure of Chu and Fischer, Biochem. Pharmacol., 17, 753-767 (1968) was used and modified where necessary. Cultured mouse L1210 and P388 sensitive cells were purchased from EG&G Mason Research Institute, Tumor Bank, Worchester, Mass. Cultured cyclophosphamide resistant L1210 and P388 cells were obtained from Dr. Robert Struck of Southern Research Institute, Birmingham, Ala. Typically, the desired cells (2-3×10^6 cells/ml) in exponential growth and suspended in 6.5 ml of Fischer's medium (Gibco Lab., Grand Island, N.Y.) were divided into six groups (1 control and 5 treated groups) containing an equal number of cells in 1 ml. These cells were then treated with varying doses of drug (solution of perhydrooxazine in media or 20% ethanol-water), diluted with media to give a total volume of 10 ml, and incubated for one hour at 37° C. The cells were washed three times with 3 ml of supplemented Fischer's medium (containing 10% horse serum) by centrifuge (800×g), removal of media by suction, and resuspension of the pellet in media (5 ml). A 1-ml portion was used to determine the cell count with a Coulter counter. From the remainder, a 5-ml suspension of cells was prepared at a density of 10^5 cells/ml, and between 10^2 and 10^5 cells were placed on soft agar and incubated at 37° C. Colonies were counted after 10 days. The log of the surviving fraction was plotted vs. drug concentration and from this plot the LC99 was obtained. (By definition, the LC99 value represents the concentration of drug necessary to effect a 99% cell kill.)

[2] = tested on: P388 murine leukemia cells, cyclophosphamide-sensitive (/0); assay: In vitro soft agar colony-forming cytotoxicity assay, cyclophosphamide-sensitive P388 cells; format: cell-based, mouse; set-up: unit not given here; conditions: P388 /0 (sensitive); 1-hour exposure, 99% cell kill
Text: as §2

[3] = tested on: P388 murine leukemia cells, cyclophosphamide-resistant (/CP); assay: In vitro soft agar colony-forming cytotoxicity assay, cyclophosphamide-resistant P388 cells; format: cell-based, mouse; set-up: LC99: unit not given here; conditions: for LC99: P388 /CP (cyclophosphamide-resistant), 1-hour exposure, 99% cell kill; for RF, resistance factor = ratio of LC99 in resistant/sensitive cells: P388, 60 min
Text: as §2

[4] = tested on: L1210 murine leukemia cells, cyclophosphamide-sensitive (/0); assay: In vitro soft agar colony-forming cytotoxicity assay, cyclophosphamide-sensitive L1210 cells; format: cell-based, mouse; set-up: unit not given here; conditions: L1210 /0 (sensitive); 1-hour exposure, 99% cell kill
Text: as §2

CP-resistant L1210 cells = assay: In vivo antitumor activity, survival of mice bearing CP-resistant L1210 cells; set-up: species or system mouse (male B6 D2 F1); conditions: for Survival of L1210 bearing mice - % T/C × 100: CP-resistant L1210, i.p.
Description: as §1

SMILES	response vs control in vivo at 34 µmol/kg (L1210 tumor cells; 34 umol/kg, i.p.) [%]	response vs control in vivo at 51 µmol/kg (L1210 tumor cells; 51 umol/kg, i.p.) [%]	response vs control in vivo at 68 µmol/kg (L1210 tumor cells; 68 umol/kg, i.p.) [%]	LC99 [1]	RF, resistance factor = ratio of LC99 in resistant/sensitive cells [1]	LC99 [2]	LC99 [3]	RF, resistance factor = ratio of LC99 in resistant/sensitive cells [3]	LC99 [4]	response vs control in vivo at 17 µmol/kg (L1210 tumor cells; i.p.) [%]	Long Term Survivors (L1210 tumor cells; 51 umol/kg, i.p.)	Long Term Survivors (L1210 tumor cells; 68 umol/kg, i.p.)	antitumor activity in L1210 leukemic mice (L1210 tumor cells; all doses tested)	toxicity compared with the reference activated cyclophosphamide (L1210 tumor cells)	also measured
CC1CC(OO)NP(=O)(N(CCCl)CCCl)O1 (centres unmarked) [Compound 1, 4-hydroperoxy-6-methylcyclophosphamide]	138	56	50	177	5.5	26	69	2.7	32	–	–	–	–	–	Long Term Survivors (L1210 tumor cells; 34 umol/kg, i.p.): 2/6
CC(C)C1CC(OO)NP(=O)(N(CCCl)CCCl)O1 (centres unmarked) [Compound 2, 4-hydroperoxy-6-isopropylcyclophosphamide]	–	–	–	115	1.1	86	61	0.7	105	–	–	–	–	–	–
O=P1(N(CCCl)CCCl)NC(OO)CC(CCc2ccccc2)O1 (centres unmarked) [Compound 3, 4-hydroperoxy-6-phenethylcyclophosphamide]	106	25	–	9	1.1	9	5	0.6	11	–	–	–	–	–	–
O=P1(N(CCCl)CCCl)NC(OO)CC(c2ccccc2)O1 (centres unmarked) [Compound 4, 4-hydroperoxy-6-phenylcyclophosphamide]	144	–	–	15	0.9	11	7	0.6	17	117	–	–	–	–	Survival of L1210 bearing mice - % T/C × 100 (L1210 tumor cells; 51 umol/kg, i.p.): toxic
O=[N+]([O-])c1ccc(C2CC(OO)NP(=O)(N(CCCl)CCCl)O2)cc1 (centres unmarked) [Compound 5, 4-hydroperoxy-6-p-nitrophenylcyclophosphamide]	163	194	225	8	1.0	7	3	0.4	8	–	2/6	4/6	highly active at all doses tested	less toxic at higher doses than the reference activated cyclophosphamide	Long Term Survivors (L1210 tumor cells; 34 umol/kg, i.p.): 1/6
Cc1ccc(C2CC(OO)NP(=O)(N(CCCl)CCCl)O2)cc1 (centres unmarked) [Compound 6, 4-Hydroperoxy-6-p-tolylcyclophosphamide]	150	175	180	6	1.2	3	3	1.0	5	–	1/6	1/6	highly active at all doses tested	less toxic at higher doses than the reference activated cyclophosphamide	–
O=P1(N(CCCl)CCCl)NC(OO)CC(c2ccc(F)cc2)O1 (centres unmarked) [Compound 7, 4-hydroperoxy-6-p-fluorophenylcyclophosphamide]	163	188	63	8	1.1	6	3	0.5	7	–	1/6	1/6	–	–	antitumor activity in L1210 leukemic mice (L1210 tumor cells; lower doses tested): highly active at the lower doses tested
O=P1(N(CCCl)CCCl)NC(OO)CC(c2cccnc2)O1 (centres unmarked) [Compound 8, 4-hydroxyperoxy-6-(3-pyridyl)cyclophosphamide]	131	69	63	56	1.6	33	24	0.7	36	–	–	–	–	–	–
O=P1(N(CCCl)CCCl)NC(OO)CC(c2ccncc2)O1 (centres unmarked) [Compound 9, 4-Hydroperoxy-6-(4-pyridyl)cyclophosphamide]	150	164	193	57	1.1	44	27	0.6	53	131	–	1/6	highly active at all doses tested	less toxic at higher doses than the reference activated cyclophosphamide	Survival of L1210 bearing mice - % T/C × 100 (CP-resistant L1210 cells; 17 umol/kg): 119%; Survival of L1210 bearing mice - % T/C × 100 (CP-resistant L1210 cells; 34 umol/kg): 131%; Survival of L1210 bearing mice - % T/C × 100 (CP-resistant L1210 cells; 51 umol/kg): 138%; Survival of L1210 bearing mice - % T/C × 100 (CP-resistant L1210 cells; 68 umol/kg): 150%; survival / lifespan of mice bearing cyclophosphamide resistant L1210 leukemia (CP-resistant L1210 cells): prolongs the survival of these mice bearing the drug-resistant leukemia at all doses tested
O=P1(N(CCCl)CCCl)NC(OO)CCO1 (centres unmarked) [Ref, reference compound]	194	50	–	141	17	6	60	10	8	136	–	–	–	–	toxicity (CP-resistant L1210 cells; 51 umol/kg dose, mice bearing cyclophosphamide resistant L1210): toxicity is apparent at the 51 umol/kg dose; Survival of L1210 bearing mice - % T/C × 100 (CP-resistant L1210 cells; 17 umol/kg): 112%; Survival of L1210 bearing mice - % T/C × 100 (CP-resistant L1210 cells; 34 umol/kg): 100%; Survival of L1210 bearing mice - % T/C × 100 (CP-resistant L1210 cells; 51 umol/kg): 75%; survival / lifespan of mice bearing cyclophosphamide resistant L1210 leukemia (CP-resistant L1210 cells): no significant increase in lifespan is observed
